In patent publication US20120202794A1 (priority 2011, published 2012):

Experiments:
HCV Replicon 1b = experiment: HCV inhibition assay, HCV replicon 1b (Clone A or ET-lunet cells; RT-PCR or luciferase reporter); type: cell-based; conditions: Hepatitis C virus, 96 h, HCV replicon 1b; 4 days incubation; read-out: Replicon 1b potency EC90
Outline: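 Clone A (1500/well) or ET-lunet (3000/well) replicon cells treated with serially diluted compounds (0.5% DMSO, no G418) for 4 days at 37 °C. HCV RNA measured by one-step RT-PCR normalized to rRNA (ΔΔCt) or by luciferase luminescence versus DMSO controls; EC50/EC90 by curve fitting.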

[1] = Cell cytotoxicity assay (MTS), CC90 as reported in Table 1, cell line not stated; type: cell-based; conditions: human; cell line not given
Outline: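 Compounds, serially diluted from 100 μM, were incubated 8 days at 37° C with Huh7, HepG2 or BxPC3 (2×10^3 cells/well) or CEM (5×10^3 cells/well). Viability was read by MTS, 2 h, absorbance 490 nm. CC90 (90% inhibition) was taken against untreated cells.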

Compound | EC90 (HCV Replicon 1b) [µM] | CC90 at 8 days [1] [µM]
CC(C)C[C@H]1C(=O)N[C@@H](C2CCCCC2)CN1Cc1cc(-c2ccc(Cl)cc2)on1 [Compound 211, (3S,6S)-4-((5-(4-chlorophenyl)isoxazol-3-yl)methyl)-6-cyclohexyl-3-isobutylpiperazin-2-one] | 0.41 | > 10
CC(C)C[C@H]1C(=O)N[C@@H](C2CCCC2)CN1Cc1cc(-c2ccc(Cl)cc2)on1 [Compound 212, (3S,6S)-4-((5-(4-chlorophenyl)isoxazol-3-yl)methyl)-6-cyclopentyl-3-isobutylpiperazin-2-one] | 0.26 | > 10
CCC(C)[C@H]1CN(Cc2cc(-c3ccc(F)cc3)on2)[C@@H](CC(C)C)C(=O)N1 (stereo partly drawn) [Compound 214] | 0.72 | > 10
CC(C)C[C@H]1C(=O)N[C@@H](c2ccccc2)CN1Cc1cc(-c2ccc(F)cc2)on1 [Compound 215, (3S,6S)-4-((5-(4-fluorophenyl)isoxazol-3-yl)methyl)-3-isobutyl-6-phenylpiperazin-2-one] | 0.19 | > 10
CC(C)C[C@H]1C(=O)N[C@@H](C2CC2)CN1Cc1cc(-c2ccc(F)cc2)on1 [Compound 216, (3S,6S)-6-cyclopropyl-4-((5-(4-fluorophenyl)isoxazol-3-yl)methyl)-3-isobutylpiperazin-2-one] | 1.6 | > 10
CSC[C@H]1CN(Cc2cc(-c3ccc(F)cc3)on2)[C@@H](CC(C)C)C(=O)N1 [Compound 217, (3S,6R)-4-[5-(4-Fluoro-phenyl)-isoxazol-3-ylmethyl]-3-isobutyl-6-methylsulfanylmethyl-piperazin-2-one] | 0.82 | > 10
CSC[C@H]1CN(Cc2cc(-c3ccc(Cl)cc3)on2)[C@@H](CC(C)C)C(=O)N1 [Compound 218, (3S,6R)-4-((5-(4-chlorophenyl)isoxazol-3-yl)methyl)-3-isobutyl-6-((methylthio)methyl)piperazin-2-one] | 0.75 | > 10
CC(C)C[C@H]1C(=O)N[C@@H](c2ccccc2)CN1Cc1cc(-c2ccc(Cl)cc2)on1 [Compound 219, (3S,6S)-4-((5-(4-chlorophenyl)isoxazol-3-yl)methyl)-3-isobutyl-6-phenylpiperazin-2-one] | 4.5 | > 10
CC(C)C[C@H]1CN(Cc2ccc(F)cc2C(F)(F)F)[C@@H](CC(C)C)C(=O)N1 [Compound 220, (3S,6S)-4-(4-fluoro-2-(trifluoromethyl)benzyl)-3,6-diisobutylpiperazin-2-one] | 8.35 | > 10
CC(C)C[C@H]1CN(Cc2ccc(F)c(C(F)(F)F)c2)[C@@H](CC(C)C)C(=O)N1 [Compound 221, (3S,6S)-4-(4-fluoro-3-(trifluoromethyl)benzyl)-3,6-diisobutylpiperazin-2-one] | > 10 | > 10
CC(C)C[C@H]1CN(Cc2cc(F)ccc2F)[C@@H](CC(C)C)C(=O)N1 [Compound 222, (3S,6S)-4-(2,5-difluorobenzyl)-3,6-diisobutylpiperazin-2-one] | 9.7 | > 10
CC(C)C[C@H]1CN(Cc2cc(C(F)(F)F)cc(C(F)(F)F)c2)[C@@H](CC(C)C)C(=O)N1 [Compound 223, (3S,6S)-4-(3,5-Bis-trifluoromethyl-benzyl)-3,6-diisobutyl-piperazin-2-one] | 4.49 | > 10
CC(C)C[C@H]1CN(Cc2c(F)cccc2F)[C@@H](CC(C)C)C(=O)N1 [Compound 224, (3S,6S)-4-(2,6-Difluoro-benzyl)-3,6-diisobutyl-piperazin-2-one] | 8.36 | > 10
CCc1ccc(CN2C[C@H](CC(C)C)NC(=O)[C@@H]2CC(C)C)cc1 [Compound 225, (3S,6S)-4-(4-Ethyl-benzyl)-3,6-diisobutyl-piperazin-2-one] | 3.51 | > 10
CC(C)C[C@H]1CN(Cc2ccc(Cl)c(Cl)c2)[C@@H](CC(C)C)C(=O)N1 [Compound 226, (3S,6S)-4-(3,4-Dichloro-benzyl)-3,6-diisobutyl-piperazin-2-one] | 8.87 | > 10
CC(C)C[C@H]1CN(Cc2ccc(F)c(Cl)c2)[C@@H](CC(C)C)C(=O)N1 [Compound 227, (3S,6S)-4-(3-Chloro-4-fluoro-benzyl)-3,6-diisobutyl-piperazin-2-one] | > 10 | > 10
CC(C)C[C@H]1CN(Cc2ccc(OC(F)(F)F)cc2)[C@@H](CC(C)C)C(=O)N1 [Compound 228, (3S,6S)-3,6-Diisobutyl-4-(4-trifluoromethoxy-benzyl)-piperazin-2-one] | 3.26 | > 10

Compound | EC90 (HCV Replicon 1b) [µM] | CC90 at 8 days [1] [µM]
CC(C)C[C@H]1CN(Cc2cc(C(F)(F)F)ccc2Cl)[C@@H](CC(C)C)C(=O)N1 [Compound 229, (3S,6S)-4-(2-Chloro-5-trifluoromethyl-benzyl)-3,6-diisobutyl-piperazin-2-one] | 5.12 | > 10
CCC[C@H]1CN(C(=O)[C@@H]2C[C@H]2c2ccccc2)[C@@H](CC(C)C)C(=O)N1 [Compound 230, (3S,6S)-3-isobutyl-4-((1R,2R)-2-phenylcyclopropanecarbonyl)-6-propylpiperazin-2-one] | 0.57 | > 10
CC(C)C[C@H]1C(=O)N[C@@H](C2CCCCC2)CN1C(=O)[C@@H]1C[C@H]1c1ccccc1 [Compound 231, (3S,6S)-6-cyclohexyl-3-isobutyl-4-((1R,2R)-2-phenylcyclopropanecarbonyl)-piperazin-2-one] | 0.93 | > 10
CC(C)C[C@H]1C(=O)N[C@@H](C2CCCC2)CN1C(=O)[C@@H]1C[C@H]1c1ccccc1 [Compound 232, (3S,6S)-6-cyclopentyl-3-isobutyl-4-((1R,2R)-2-phenylcyclopropanecarbonyl)-piperazin-2-one] | 0.69 | > 10
CC(C)C[C@H]1C(=O)N[C@@H](C(C)C)CN1C(=O)[C@@H]1C[C@H]1c1ccccc1 [Compound 233, (3S,6S)-3-isobutyl-6-isopropyl-4-((1R,2R)-2-phenylcyclopropanecarbonyl)piperazin-2-one] | 0.93 | > 10
CC(C)C[C@H]1C(=O)N[C@@H](c2ccccc2)CN1C(=O)[C@@H]1C[C@H]1c1ccccc1 [Compound 234, (3S,6S)-3-isobutyl-6-phenyl-4-((1R,2R)-2-phenylcyclopropanecarbonyl)piperazin-2-one] | 0.3 | > 10
CC(C)C[C@H]1C(=O)N[C@@H](C2CC2)CN1C(=O)[C@@H]1C[C@H]1c1ccccc1 [Compound 235, (3S,6S)-6-cyclopropyl-3-isobutyl-4-((1R,2R)-2-phenylcyclopropanecarbonyl)-piperazin-2-one] | 4.2 | > 10
CC(C)C[C@H]1CN(C(=O)[C@@H]2C[C@H]2c2ccc(F)cc2)[C@@H](CC(C)C)C(=O)N1 [Compound 236, (3S,6S)-4-[(1R,2R)-2-(4-Fluoro-phenyl)-cyclopropanecarbonyl]-3,6-diisobutyl-piperazin-2-one] | 0.08 | > 10
CC(C)C[C@H]1CN(C(=O)[C@@H]2C[C@H]2c2ccc(Cl)cc2)[C@@H](CC(C)C)C(=O)N1 [Compound 237, (3S,6S)-4-[(1R,2R)-2-(4-Chloro-phenyl)-cyclopropanecarbonyl]-3,6-diisobutyl-piperazin-2-one] | 0.27 | > 10
CC(C)C[C@H]1CN(C(=O)[C@@H]2C[C@H]2c2ccc(F)c(F)c2)[C@@H](CC(C)C)C(=O)N1 [Compound 238, (3S,6S)-4-[(1R,2R)-2-(3,4-Difluoro-phenyl)-cyclopropanecarbonyl]-3,6-diisobutyl-piperazin-2-one] | 0.59 | > 10
COc1ccc([C@@H]2C[C@H]2C(=O)N2C[C@H](CC(C)C)NC(=O)[C@@H]2CC(C)C)cc1 [Compound 239, (3S,6S)-3,6-Diisobutyl-4-[(1R,2R)-2-(4-methoxy-phenyl)-cyclopropanecarbonyl]-piperazin-2-one] | 0.96 | > 10
CCC[C@H]1CN(C(=O)[C@@H]2C[C@H]2c2ccc(F)cc2)[C@@H](CC(C)C)C(=O)N1 [Compound 240, (3S,6S)-4-[(1R,2R)-2-(4-Fluoro-phenyl)-cyclopropanecarbonyl]-3-isobutyl-6-propyl-piperazin-2-one] | 0.1 | > 10
CC(C)C[C@H]1C(=O)N[C@@H](C2CCCCC2)CN1C(=O)[C@@H]1C[C@H]1c1ccc(F)cc1 [Compound 241, (3S,6S)-6-Cyclohexyl-4-[(1R,2R)-2-(4-fluoro-phenyl)-cyclopropanecarbonyl]-3-isobutyl-piperazin-2-one] | 0.15 | > 10
CC(C)C[C@H]1C(=O)N[C@@H](C2CCCC2)CN1C(=O)[C@@H]1C[C@H]1c1ccc(F)cc1 [Compound 242, (3S,6S)-6-Cyclopentyl-4-[(1R,2R)-2-(4-fluoro-phenyl)-cyclopropanecarbonyl]-3-isobutyl-piperazin-2-one] | 0.06 | > 10
CC(C)C[C@H]1C(=O)N[C@@H](CC2CC2)CN1C(=O)[C@@H]1C[C@H]1c1ccc(Cl)cc1 [Compound 243, (3S,6S)-4-[(1R,2R)-2-(4-Chloro-phenyl)-cyclopropanecarbonyl]-6-cyclopropylmethyl-3-isobutyl-piperazin-2-one] | 0.43 | > 10
CCC[C@H]1CN(C(=O)[C@@H]2C[C@H]2c2ccc(Cl)cc2)[C@@H](CC(C)C)C(=O)N1 [Compound 244, (3S,6S)-4-[(1R,2R)-2-(4-Chloro-phenyl)-cyclopropanecarbonyl]-3-isobutyl-6-propyl-piperazin-2-one] | 0.07 | > 10
